Legend:
[1] = test system: Bemisia tabaci; test: Bemisia tabaci leaf dip test (brinjal leaves, whitefly adults); format: in vivo; settings: foliar, dead and moribund whitefly adults 72 h after release, compared to untreated controls, read-out: percent mortality
Procedure: The leaf dip method was used for testing, wherein the required quantity of the compound was weighed and dissolved in a tube containing a solvent solution. The tube was put on a vortex at 2000 rpm for proper mixing and then diluted with a 0.01% Triton-X solution to the desired test concentration. Brinjal leaves were dipped in the compound solution for 10 seconds; shade dried for 20 min and then placed, with the abaxial side of the leaf up, on 4 ml of a solidified 1% agar-agar solution in respective container caps. Known numbers of freshly emerged whitefly adults were collected, using a modified aspirator, and released into a perforated container in which the cap containing the treated leaf was placed. The containers were kept in a plant growth chamber at a temperature of 25° C. and relative humidity of 70%. Observations on dead, moribund and alive adults were recorded 72 h after the release. Percent mortality was calculated by combining dead and moribund adults and comparing the result to the one of the untreated controls. The compounds 1 9 11 18 25 28 29 30 31

[2] = test system: Nilaparvata lugens; test: Nilaparvata lugens seedling dip test (paddy seedlings, third instar nymphs); format: in vivo; settings: dead and moribund third instar nymphs 72 h after release, compared to untreated controls, read-out: percent mortality
Procedure: The seedling dip method was used for testing, wherein the required quantity of the compound was weighed and dissolved in a tube containing a solvent solution. The tube was put on a vortex at 2000 rpm for proper mixing and then diluted with a 0.01% Triton-X solution to the desired test concentration. Paddy seedlings were dipped in the compound solution for 10 seconds, shade dried for 20 min and then the seedlings were placed in glass test tubes with the roots kept in water. 15 third instar nymphs of Nilaparvata lugens were released into each test tube and the tubes were kept in a plant growth chamber at a temperature of 25° C. and relative humidity of 75%. Observations on dead, moribund and alive nymphs were recorded 72 h after the release. Percent mortality was calculated by combining dead and moribund nymphs and comparing the result to the one of the untreated controls. The compounds

## CS(C)(=O)=Nc1ccc2nn(-c3cncnc3)cc2c1 [Compound 9]
[1]
  mortality at 300 ppm: ≥ 70%
[2]
  mortality at 300 ppm: ≥ 70%

## CCS(=O)(CC)=Nc1ccc2nn(-c3cncnc3)cc2c1 [Compound 11]
[1]
  mortality at 300 ppm: ≥ 70%
[2]
  mortality at 300 ppm: ≥ 70%

## CS(=O)(=Nc1ccc2nn(-c3cccnc3)cc2c1)c1cccnc1 (centres unmarked) [Compound 30]
[1]
  mortality at 300 ppm: ≥ 70%
[2]
  mortality at 300 ppm: ≥ 70%

## CCCCCS(C)(=O)=Nc1ccc2nn(-c3cncnc3)cc2c1 (centres unmarked) [Compound 33]
[1]
  mortality at 300 ppm: ≥ 70%
[2]
  mortality at 300 ppm: ≥ 70%

## CC(C)S(=O)(=Nc1ccc2nn(-c3cccnc3)cc2c1)c1ccc(F)cc1 (centres unmarked) [Compound 38]
[1]
  mortality at 300 ppm: ≥ 70%
[2]
  mortality at 300 ppm: ≥ 70%

## Cc1ccc(S(C)(=O)=Nc2ccc3nn(-c4cncc(F)c4)cc3c2)cc1 (centres unmarked) [Compound 51]
[2]
  mortality at 300 ppm: ≥ 70%

## CS(C)(=O)=Nc1cccc2nn(-c3cccnc3)cc12 [Compound 72]
[1]
  mortality at 300 ppm: ≥ 70%
[2]
  mortality at 300 ppm: ≥ 70%

## CCCS(=O)(CCC)=Nc1cccc2nn(-c3cccnc3)cc12 [Compound 78]
[1]
  mortality at 300 ppm: ≥ 70%
[2]
  mortality at 300 ppm: ≥ 70%

## CCS(=O)(=NC(=O)c1ccc2nn(-c3cccnc3)cc2c1)C(C)C (centres unmarked) [Compound 105, N-(ethyl(isopropyl)(oxo)-λ^6-sulfaneylidene)-2-(pyridin-3-yl)-2H-indazole-5-carboxamide]
[2]
  mortality at 300 ppm: ≥ 70%

## COc1nn(-c2ccc3nn(-c4cncc(C)c4)cc3c2)c(=O)n1C [Compound 111, 5-methoxy-4-methyl-2-(2-(5-methylpyridin-3-yl)-2H-indazol-5-yl)-2,4-dihydro-3H-1,2,4-triazol-3-one]
[2]
  mortality at 300 ppm: ≥ 70%

## COc1nn(-c2ccc3nn(-c4cccnc4C)cc3c2)c(=O)n1C [Compound 113, 5-methoxy-4-methyl-2-(2-(2-methylpyridin-3-yl)-2H-indazol-5-yl)-2,4-dihydro-3H-1,2,4-triazol-3-one]
[2]
  mortality at 300 ppm: ≥ 70%

## COc1nn(-c2ccc3nn(-c4cnccc4C)cc3c2)c(=O)n1C [Compound 114, 5-methoxy-4-methyl-2-(2-(4-methylpyridin-3-yl)-2H-indazol-5-yl)-2,4-dihydro-3H-1,2,4-triazol-3-one]
[2]
  mortality at 300 ppm: ≥ 70%

## COc1nn(-c2ccc3nn(-c4ccc(C)nc4)cc3c2)c(=O)n1C [Compound 115, 5-methoxy-4-methyl-2-(2-(6-methylpyridin-3-yl)-2H-indazol-5-yl)-2,4-dihydro-3H-1,2,4-triazol-3-one]
[2]
  mortality at 300 ppm: ≥ 70%

## COc1nn(-c2cccc3nn(-c4cccnc4)cc23)c(=O)n1C [Compound 125, 5-methoxy-4-methyl-2-(2-(pyridin-3-yl)-2H-indazol-4-yl)-2,4-dihydro-3H-1,2,4-triazol-3-one]
[2]
  mortality at 300 ppm: ≥ 70%

## COc1nn(-c2ccc3nn(-c4cccnc4)cc3c2)c(=O)n1C1CC1 [Compound 127, 4-cyclopropyl-5-methoxy-2-(2-(pyridin-3-yl)-2H-indazol-5-yl)-2,4-dihydro-3H-1,2,4-triazol-3-one]
[2]
  mortality at 300 ppm: ≥ 70%

## CS(=O)(=Nc1cnc2nn(-c3cccnc3)cc2c1)c1ncccc1F (centres unmarked) [Compound 152]
[2]
  mortality at 300 ppm: ≥ 70%

## CS(=O)(=Nc1cnc2nn(-c3cccnc3)cc2c1)c1cccnc1Cl (centres unmarked) [Compound 153]
[2]
  mortality at 300 ppm: ≥ 70%

## CC(C)CS(=O)(CC(C)C)=Nc1ccc2nn(-c3cncnc3)c(Cl)c2c1 [Compound 181]
[2]
  mortality at 300 ppm: ≥ 70%

## CCCCS(=O)(CC)=Nc1ccc2nn(-c3cncc(F)c3)c(Cl)c2c1 (centres unmarked) [Compound 194]
[2]
  mortality at 300 ppm: ≥ 70%

## CS(C)(=O)=Nc1ccc(Cl)c2nn(-c3cncc(F)c3)cc12 [Compound 202]
[2]
  mortality at 300 ppm: ≥ 70%

## CC(C)S(C)(=O)=Nc1ccc(Cl)c2nn(-c3cncc(F)c3)cc12 (centres unmarked) [Compound 206]
[2]
  mortality at 300 ppm: ≥ 70%

## CCOc1nn(-c2cccc3nn(-c4cccnc4)cc23)c(=O)n1Cc1ccc(OC(F)(F)F)cc1 [Compound 331, 5-ethoxy-2-(2-(pyridin-3-yl)-2H-indazol-4-yl)-4-(4-(trifluoromethoxy)benzyl)-2,4-dihydro-3H-1,2,4-triazol-3-one]
[2]
  mortality at 300 ppm: ≥ 70%

## CCOc1nn(-c2cccc3nn(-c4cccnc4)cc23)c(=O)n1Cc1ccc(F)cc1 [Compound 343, 5-ethoxy-4-(4-fluorobenzyl)-2-(2-(pyridin-3-yl)-2H-indazol-4-yl)-2,4-dihydro-3H-1,2,4-triazol-3-one]
[2]
  mortality at 300 ppm: ≥ 70%

## COc1nn(-c2ccc3nn(-c4cccnc4)c(Cl)c3c2)c(=O)n1C [Compound 347, 2-(3-chloro-2-(pyridin-3-yl)-2H-indazol-5-yl)-5-methoxy-4-methyl-2,4-dihydro-3H-1,2,4-triazol-3-one]
[2]
  mortality at 300 ppm: ≥ 70%

## COc1nn(-c2cccc3nn(-c4cccnc4)cc23)c(=O)n1Cc1ccccc1F [Compound 356, 4-(2-fluorobenzyl)-5-methoxy-2-(2-(pyridin-3-yl)-2H-indazol-4-yl)-2,4-dihydro-3H-1,2,4-triazol-3-one]
[2]
  mortality at 300 ppm: ≥ 70%

## COc1nn(-c2cccc3nn(-c4cncnc4)cc23)c(=O)n1Cc1ccccc1F [Compound 357, 4-(2-fluorobenzyl)-5-methoxy-2-(2-(pyrimidin-5-yl)-2H-indazol-4-yl)-2,4-dihydro-3H-1,2,4-triazol-3-one]
[2]
  mortality at 300 ppm: ≥ 70%

## CCOc1nn(-c2cccc3nn(-c4cccnc4)cc23)c(=O)n1Cc1ccccc1F [Compound 359, 5-ethoxy-4-(2-fluorobenzyl)-2-(2-(pyridin-3-yl)-2H-indazol-4-yl)-2,4-dihydro-3H-1,2,4-triazol-3-one]
[2]
  mortality at 300 ppm: ≥ 70%

## CCOc1nn(-c2cccc3nn(-c4cncnc4)cc23)c(=O)n1Cc1ccccc1F [Compound 360, 5-ethoxy-4-(2-fluorobenzyl)-2-(2-(pyrimidin-5-yl)-2H-indazol-4-yl)-2,4-dihydro-3H-1,2,4-triazol-3-one]
[2]
  mortality at 300 ppm: ≥ 70%

## COc1nn(-c2ccc3nn(-c4cccnc4)cc3c2)c(=O)n1Cc1ccccc1Cl [Compound 367, 4-(2-chlorobenzyl)-5-methoxy-2-(2-(pyridin-3-yl)-2H-indazol-5-yl)-2,4-dihydro-3H-1,2,4-triazol-3-one]
[2]
  mortality at 300 ppm: ≥ 70%

## CC(C)S(=O)(=NC#N)c1ccc2nn(-c3cccnc3)cc2c1 (centres unmarked) [Compound 392, N-(isopropyl(oxo)(2-(pyridin-3-yl)-2H-indazol-5-yl)-λ^6-sulfaneylidene)cyanamide]
[2]
  mortality at 300 ppm: ≥ 70%

## CC(C)S(=O)(=NC(=O)C(F)(F)F)c1ccc2nn(-c3cccnc3)cc2c1 (centres unmarked) [Compound 394]
[2]
  mortality at 300 ppm: ≥ 70%

## CC(C)S(=O)(=NC(=O)C(F)F)c1ccc2nn(-c3cccnc3)cc2c1 (centres unmarked) [Compound 396]
[2]
  mortality at 300 ppm: ≥ 70%

## CC(=O)N=S(=O)(c1cnc2nn(-c3cncc(F)c3)cc2c1)C(C)C (centres unmarked) [Compound 402]
[2]
  mortality at 300 ppm: ≥ 70%

## CC(C)S(=O)(=NC(=O)C(F)(F)F)c1ccc2nn(-c3cncnc3)cc2c1 (centres unmarked) [Compound 417]
[2]
  mortality at 300 ppm: ≥ 70%

## N=S(=O)(CC1CC1)c1ccc2nn(-c3cccnc3)c(Cl)c2c1 (centres unmarked) [Compound 454, (3-chloro-2-(pyridin-3-yl)-2H-indazol-5-yl)(cyclopropylmethyl)(imino)-λ^6-sulfanone]
[2]
  mortality at 300 ppm: ≥ 70%

## CCS(=O)(=Nc1ccnc(C)c1)c1ccc2nn(-c3cncc(F)c3)cc2c1 (centres unmarked) [Compound 464]
[2]
  mortality at 300 ppm: ≥ 70%

## CCN=S(=O)(CC1CCC1)c1ccc2nn(-c3cncc(F)c3)cc2c1 (centres unmarked) [Compound 471, (cyclobutylmethyl)(ethylimino)(2-(5-fluoropyridin-3-yl)-2H-indazol-5-yl)-λ^6-sulfanone]
[2]
  mortality at 300 ppm: ≥ 70%

From patent US20250282754A1, “BICYCLIC COMPOUNDS AND THEIR USE AS PEST CONTROL AGENTS” (Pl Industries Ltd., priority 2022, published 2025)
